Test results: US20070270403A1 (priority 2003, published 2007)
Like-named read-outs stand apart in the source and are kept apart here.

Assays:
[1] = system: DA release in NAcc; assay: In vivo microvoltammetry, DA release in NAcc (clozapine studies); set-up: species or system Sprague-Dawley Rattus Norvegicus; conditions: Subacute, cocaine 10 mg/kg i.p. on Day 1, hr period of study
Description: (§1) There is an increasing awareness that a psychosis, similar to that of schizophrenic psychosis, can be derived from cocaine addiction. […] Release mechanisms for monoamines, were determined by using a depolarization blocker, gamma-butyrolactone (γBL). […] Acute and Subacute studies were performed for each treatment group.
(§2) The stereotaxic equipment was purchased from David Kopf Instruments, Tujunga, Calif. A Ag/AgCl reference electrode was placed in contact with dura, 7 mm anteriorally and contralaterally to the indicator microelectrode. A stainless steel auxiliary microelectrode was placed in contact with dura. BRODERICK PROBE® microelectrodes were manufactured on site.
(§3) In vivo microvoltammetric studies on conscious Sprague-Dawley laboratory rats were begun nine to fifteen days after the aseptic surgical operations were performed. On each experimental day, the animal was placed in a Plexiglas-copper faradaic chamber. The three-microelectrode assembly, enclosed within the animal's prosthetic acrylic cap, was connected to a CV37 detector by means of a mercury commutator (Br. Res. Instr., Princeton, N.J.), a flexible cable, and a mating connector (BJM Electronics, Staten Island, N.Y.). The CV37 detector was electrically connected to a Minigard surge suppresser (Jefferson Electric, Magnetek, N.Y.) which was then connected to an electrical ground in isolation. […] Each animal was used as its own control. Changes in synaptic concentrations of DA and 5-HT are presented as percent change (% of control) in order to minimize normal between-animal variations. […] In vivo microvoltammetric scans were recorded in sec and repeated every five min for a period of 2 hrs before each treatment and a period of two hrs after each treatment.
(§4) Potentials were applied with a CV37 detector (BAS, West Lafayette, Ind.). Potentials were applied from −0.2V to +0.4V with respect to a Ag/AgCl (1M NaCl) electrode, at a scan rate of 10 mV/sec at time constants of 5 and 1 tau. One scan was completed in 60 sec. Non-faradaic charging current was eliminated in the first 25 sec.
(§5) Calibration curves were determined experimentally, in vitro, in a freshly prepared deoxygenated physiological saline-phosphate buffer solution (0.01 M, pH=7.4). We use ultra pure Nitrogen (N2) (T. W. Smith Corp., Bklyn, N.Y.) to deoxygenate the buffer solution. […] Calibration studies were also performed in freshly prepared deoxygenated buffer solutions containing phosphotidylethanolamine (PEA), combined with bovine serum albumin (BSA) (Sigma Aldrich, St. Louis, Mo.), a solution which closely mimics brain constituents. […] Detection limits for basal synaptic concentrations of DA and 5-HT in NAcc were 12 nM and 2 nM respectively.

[2] = system: 5-HT release in NAcc; assay: In vivo microvoltammetry, 5-HT release in NAcc (clozapine studies); set-up: species or system Sprague-Dawley Rattus Norvegicus
Description: as §1, §2, §3, §4, §5

[3] = cited from earlier work

COC(=O)[C@H]1[C@@H](OC(=O)c2ccccc2)C[C@@H]2CC[C@H]1N2C [Cocaine, cocaine]
Decrease in DA release on Day 2 compared to drug effect on Day 1 [1]: about 80%
Maximum decrease in 5-HT below baseline, Subacute ([2]; 24 hr after cocaine 10 mg/kg i.p.): 40%
Decrease in 5-HT release on Day 2 compared to drug effect on Day1 ([2]; Subacute, cocaine 10 mg/kg i.p. on Day 1, second half hour of the study): approximately 150%
half-life ([3]; i.v. cocaine): 0.5 h
half-life ([3]; s.c. cocaine): 4 h
